“Also recorded” adds a separate entry of the source.
What was measured:
[1] = system: human CFTR protein bearing the ΔF508 mutation; assay: Western blot of CFTR in CFPAC-1 cells treated with GSNO; assay type: cell-based
Experimental: FIG. 1. […] Human pancreatic adenocarcinoma cells from a patient homozygous for ΔF508 (CFPAC-1) were grown to confluence and treated with medium alone (control) or 500 nM, 1 μM, 5 μM, 10 μM or 100 mM GSNO for 6 hours. The cells were harvested, lysed, resuspended in NP40 buffer and underwent Western Blot analysis with anti-CFTR antibody. […] Increased expression of the immature non-glycosylated protein (140 kDa) reflects decreased degradation of the immature protein in the endoplasma retimulum The appearance of a band at 180 kDa (mature protein) reflects maturation of the protein in the endoplasmic reticulum, an expression of a form capable of being expressed on the cell surface representative of three experiments. The full maturing of the protein accommodates for the ΔF508 mutation.

[2] = system: patients with CF; assay: Double-blind, placebo-controlled nebulized GSNO study in patients with CF; assay type: in vivo, human
Experimental: FIG. 3. […] In a double-blind, placebo-controlled study, patients with CF received GSNO in 10 mM phosphate buffered saline (PBS) (n=9) or 10 mM PBS alone (n=11) by nebulizer. The two groups were matched with respect to age, vital signs, oxygen saturation, vital capacity, FEV1, and FEF25-75(p=7). Change in oxygen saturation from pretreatment baseline is recorded as a function of time. Results are shown in FIG. 3 where the continuous line represents the GSNO group and the line composed of dashes represents the PBS alone group. […] FIG. 4. Inhaled S-nitrosoglutathione cases increased expired nitric oxide (NO) concentration in CF. Data presented represent the two groups described in FIG. 3, but with respect to expired nitric oxide concentration (measured off-line with chemiluminescence in accordance with American Thoracic Society guidelines). Results are shown in FIG. 4 where the continuous line represents the GSNO group and the line composed of dashes represents the PBS alone group. […] Note that the change at 30 minutes is less pronounced than at 5 minutes, though improvement in oxygenation is as dramatic at 30 minutes as at 5 minutes. […] These S-nitrosylation reactions may be critically important to smooth muscle relaxation, antimicrobial effects and modification of ion channel function. FIGS. 5A, 5B, 5C, 5D, 5E and 5F. Inhaled S-nitrosoglutathione is well tolerated in CF patients.

[3] = system: ubiquitin proteosome pathway; assay: Inhibition of the ubiquitin proteosome pathway (preliminary evidence); conditions: stabilizes expression of hypoxy inducible factor 1
From the text: Cystic fibrosis is caused by mutations in a membrane-associated chloride channel, the cystic fibrosis transmembrane regulatory protein (CFTR). The most common mutation, accounting for 70% of alleles, is a 3 base pair (single amino acid) deletion at the 508 position on the first ATP binding domain, the (ΔF508) mutation. This is referred to as a class II mutation in that intact and potentially functional protein is degraded in the endoplasm reticulum because of a small folding error. It is known that his degradation can be bypassed in vitro by hypothermia and by treatment with compounds,such as glycerol and phenylbutyrate. These treatments result in functional expression of (ΔF508) CFTR on the cell surface. It has recently been proposed that CFTR degradation in the endoplasmic reticulum (ER) is mediated by the ubiquitin-proteasome system.

[4] = system: human airway smooth muscle preparations; conditions: read-out: IC50 in relaxing human airway smooth muscle preparations; cited from earlier work
[5] = cited from earlier work
[6] = cells homozygous to the ΔF508 mutation, 100 μM GSNO

N[C@@H](CCC(=O)N[C@@H](CSN=O)C(=O)NCC(=O)O)C(=O)O [GSNO, S-nitrosoglutathione]
stabilization and maturation of ΔF508 CFTR protein (Western blot, 140/160/180 kDa bands) ([1]; CFPAC-1 cells, 500 nM, 1 μM, 5 μM, 10 μM or 100 mM GSNO for 6 hours): stabilizes and allows maturation of human CFTR protein bearing the ΔF508 mutation
expression of CFTR [1, 6]: increases the expression of CFTR
maturation of CFTR [1, 6]: increases the maturation of CFTR
tolerability (vital signs, lung function, systemic effects) ([2]; CF patients, inhaled 0.05 ml/kg of 10 mM GSNO): no acute change in vital signs or lung function was observed; also recorded: well tolerated in CF and has no adverse systemic affects
change in oxygen saturation from pretreatment baseline ([2]; inhalation of 0.05 ml/kg of 10 mM GSNO by nebulizer vs PBS alone, p<0.001 by ANOVA): greater improvement in oxygen saturation than those in the PBS group; also recorded: improved oxygenation
inhibition of ubiquitin proteosome pathway [3]: inhibits the ubiquitin proteosome pathway
IC50 [4]: ~10 µM
stability at acid pH [5]: stable at acid pH

Source: patent US6723703B2, “Therapeutic use of aerosolized S-nitrosoglutathione in cystic fibrosis” (Duke University, priority 2000, dated 2004)
